Results reported in ChEMBL document CHEMBL5729353, “Imidazopyridazine and imidazopyridine compounds and uses thereof” (2022).
pIC50: −log10 of the molar value.

Target: T1, Activin receptor type-1 (Homo sapiens, UniProt Q04771)
T1 sequence (Q04771 whole entry): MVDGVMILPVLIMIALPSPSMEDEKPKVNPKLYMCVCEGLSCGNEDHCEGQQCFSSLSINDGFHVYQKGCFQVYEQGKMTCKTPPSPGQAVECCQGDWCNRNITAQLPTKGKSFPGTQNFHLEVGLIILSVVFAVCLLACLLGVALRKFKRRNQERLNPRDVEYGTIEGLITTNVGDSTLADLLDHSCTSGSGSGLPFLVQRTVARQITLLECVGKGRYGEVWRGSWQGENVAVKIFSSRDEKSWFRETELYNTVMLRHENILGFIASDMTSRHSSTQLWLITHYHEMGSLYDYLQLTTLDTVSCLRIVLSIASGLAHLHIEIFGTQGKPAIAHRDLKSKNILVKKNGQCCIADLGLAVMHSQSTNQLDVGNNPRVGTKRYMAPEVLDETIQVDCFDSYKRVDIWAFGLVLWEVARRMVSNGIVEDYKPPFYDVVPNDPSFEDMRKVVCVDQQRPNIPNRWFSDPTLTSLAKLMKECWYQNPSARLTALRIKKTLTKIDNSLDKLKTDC
Test: The enzymatic assays were conducted in white 384-well polystyrene plates in a final volume of 8 μL. The inhibitors were serially diluted in DMSO and added to the plate wells prior to addition of the other reaction components. […] The final concentration of DMSO in the assay was 1% and the enzyme concentration was 0.5 nM for ALK2. […] The reaction was incubated at 25° C. for 1 hr and read on a PHERAstar FS plate reader (BMG Labtech). IC50 determination was performed by fitting percent control activity versus the log of the inhibitor concentration using the IDBS XLFit and GraphPad Prism 5.0 software.

Question: With `Cc1nn2c(-c3ccnc4cc(-c5ccncc5)ccc34)cnc2cc1-c1cnn(CC2CCNCC2)c1` as the compound, how does the pIC50 read?
Answer: > 9.00
